≈ marks a conversion by molar mass, not a printed value.
Legend:
[1] = test system: Staphylococcus aureus; test: Antibacterial activity against methicillin-resistant Staphylococcus aureus ATCC 43300 incubated for overnight measured after 20 to 24 hrs by broth microdilution method; type: functional
[2] = test system: Staphylococcus aureus; test: Antibacterial activity against methicillin-susceptible Staphylococcus aureus ATCC 29213 incubated for overnight measured after 20 to 24 hrs by broth microdilution method; type: functional
[3] = test system: Staphylococcus aureus; test: Antibacterial activity against methicillin-resistant Staphylococcus aureus 4N216 incubated for overnight measured after 20 to 24 hrs by broth microdilution method; type: functional
[4] = test system: Escherichia coli; test: Antibacterial activity against Escherichia coli ATCC 25922 incubated for overnight measured after 20 to 24 hrs by broth microdilution method; type: functional
[5] = test system: Acinetobacter baumannii; test: Antibacterial activity against Acinetobacter baumannii ATCC 19606 incubated for overnight measured after 20 to 24 hrs by broth microdilution method; type: functional
[6] = test system: Staphylococcus aureus; test: Antibacterial activity against methicillin-resistant Staphylococcus aureus C217 incubated for overnight measured after 20 to 24 hrs by broth microdilution method; type: functional
[7] = test system: Staphylococcus aureus; test: Antibacterial activity against vancomycin-intermediate and daptomycin-nonsusceptible methicillin-resistant Staphylococcus aureus Z172 incubated for overnight measured after 20 to 24 hrs by broth microdilution method; type: functional
[8] = test system: Enterococcus faecalis; test: Antibacterial activity against vancomycin-resistant Enterococcus faecalis ATCC 51299 incubated for overnight measured after 20 to 24 hrs by broth microdilution method; type: functional
[9] = test system: Klebsiella pneumoniae; test: Antibacterial activity against Klebsiella pneumoneae ATCC 700603 incubated for overnight measured after 20 to 24 hrs by broth microdilution method; type: functional
[10] = test system: Staphylococcus aureus; test: Antibacterial activity against methicillin-resistant Staphylococcus aureus L166 incubated for overnight measured after 20 to 24 hrs by broth microdilution method; type: functional
[11] = test system: Pseudomonas aeruginosa; test: Antibacterial activity against Pseudomonas aeruginosa ATCC 27853 incubated for overnight measured after 20 to 24 hrs by broth microdilution method; type: functional
[12] = test system: Staphylococcus aureus; test: Antibacterial activity against methicillin-resistant Staphylococcus aureus Z234 incubated for overnight measured after 20 to 24 hrs by broth microdilution method; type: functional
[13] = test system: Staphylococcus aureus; test: Antibacterial activity against methicillin-resistant Staphylococcus aureus M013 incubated for overnight measured after 20 to 24 hrs by broth microdilution method; type: functional
[14] = test system: Staphylococcus aureus; test: Antibacterial activity against methicillin-susceptible Staphylococcus aureus M056 incubated for overnight measured after 20 to 24 hrs by broth microdilution method; type: functional
[15] = test system: Staphylococcus aureus; test: Antibacterial activity against methicillin-resistant Staphylococcus aureus N043 incubated for overnight measured after 20 to 24 hrs by broth microdilution method; type: functional
[16] = test system: Staphylococcus aureus; test: Antibacterial activity against methicillin-resistant Staphylococcus aureus Y069 incubated for overnight measured after 20 to 24 hrs by broth microdilution method; type: functional
[17] = test system: Mus musculus; test: Acute toxicity in ICR mouse assessed as increase in survival at 100 mg/kg, iv measured after 2 weeks; type: organism-based; details: in vivo, 336 h
[18] = test system: Mus musculus; test: Acute toxicity in ICR mouse assessed as increase in body weight at 100 mg/kg, iv measured daily for 2 weeks; type: organism-based; details: in vivo, 336 h

`OC(CNCCc1c[nH]c2cc(F)ccc12)Cn1c2ccccc2c2ccccc21` (stereo not drawn) was tested, and the MIC [1] was 4 µg/mL (≈ 9.96 µM) and the MIC [2] was 4 µg/mL (≈ 9.96 µM).
In the case of `OC(CNCCc1c[nH]cn1)Cn1c2ccc(Br)cc2c2cc(Br)ccc21` (stereo not drawn), the MIC [1] is reported as 4 µg/mL (≈ 8.13 µM) and the MIC [2] is reported as 4 µg/mL (≈ 8.13 µM).
For `OC(CNCc1c[nH]c2cc(F)ccc12)Cn1c2ccc(Br)cc2c2cc(Br)ccc21` (stereo not drawn), the MIC [1] was 2 µg/mL (≈ 3.67 µM) and the MIC [2] was 2 µg/mL (≈ 3.67 µM).
Molecule `OC(CNCCc1cccc(F)c1)Cn1ccc2cc(Br)ccc21` (stereo not drawn) has an MIC [1] of 8 µg/mL (≈ 20.4 µM) and an MIC [2] of 16 to 32 µg/mL (≈ 40.9 to 81.8 µM).
In the case of `OC(CNc1ccc(C(F)(F)F)cc1)Cn1c2ccc(Cl)cc2c2cc(Cl)ccc21` (stereo not drawn), the MIC [3] is reported as 1 µg/mL (≈ 2.21 µM), the MIC [4] is reported as > 64 µg/mL and the MIC [5] is reported as > 64 µg/mL. The MIC [6] was 1 µg/mL (≈ 2.21 µM), the MIC [7] was 1 µg/mL (≈ 2.21 µM) and the MIC [8] was 2 µg/mL (≈ 4.41 µM). For the same molecule, the MIC [9] was > 64 µg/mL, the MIC [10] was 1 µg/mL (≈ 2.21 µM) and the MIC [11] was > 64 µg/mL. The MIC [12] was 1 µg/mL (≈ 2.21 µM), the MIC [13] was 1 µg/mL (≈ 2.21 µM) and the MIC [14] was 1 µg/mL (≈ 2.21 µM). The MIC [15] was 1 µg/mL (≈ 2.21 µM) and the MIC [16] was 1 µg/mL (≈ 2.21 µM).
Work on `O[C@@H](CNCCc1c[nH]c2cc(F)ccc12)Cn1c2ccc(Cl)cc2c2cc(Cl)ccc21` yielded an MIC [1] of 0.5 to 1 µg/mL (≈ 1.06 to 2.13 µM) and an MIC [2] of 0.5 to 1 µg/mL (≈ 1.06 to 2.13 µM).
`OC(CNc1nc(Cl)nc2ccccc12)Cn1c2ccc(Br)cc2c2cc(Br)ccc21` (stereo not drawn) was tested, and the MIC [1] was > 32 µg/mL and the MIC [2] was > 32 µg/mL.
`OC(CNCCc1c[nH]c2cc(F)ccc12)Cn1c2ccc(Br)cc2c2cc(Br)ccc21` (stereo not drawn) gave an MIC [3] of 1 µg/mL (≈ 1.79 µM), an MIC [4] of 8 to 16 µg/mL (≈ 14.3 to 28.6 µM) and an MIC [5] of 16 µg/mL (≈ 28.6 µM). For the same molecule, the MIC [6] was 1 µg/mL (≈ 1.79 µM), the Activity [17] was “Non-Toxic” and the MIC [7] was 2 µg/mL (≈ 3.58 µM). For the same molecule, the MIC [8] was 2 µg/mL (≈ 3.58 µM), the MIC [9] was > 64 µg/mL and the MIC [10] was 1 µg/mL (≈ 1.79 µM). The MIC [11] was > 64 µg/mL, the MIC [1] was 1 µg/mL (≈ 1.79 µM) and the MIC [12] was 1 µg/mL (≈ 1.79 µM). For the same molecule, the MIC [13] was 1 µg/mL (≈ 1.79 µM), the MIC [2] was 1 µg/mL (≈ 1.79 µM) and the Activity [18] was “Non-Toxic”. The MIC [14] was 1 to 2 µg/mL (≈ 1.79 to 3.58 µM), the MIC [15] was 1 µg/mL (≈ 1.79 µM) and the MIC [16] was 1 µg/mL (≈ 1.79 µM).
`O[C@H](CNCCc1c[nH]c2cc(F)ccc12)Cn1c2ccc(Cl)cc2c2cc(Cl)ccc21` gave an MIC [1] of 0.5 to 1 µg/mL (≈ 1.06 to 2.13 µM) and an MIC [2] of 0.5 to 1 µg/mL (≈ 1.06 to 2.13 µM).
In the case of `O[C@@H](CNCCc1c[nH]c2ccc(Cl)cc12)Cn1c2ccc(Br)cc2c2cc(Br)ccc21`, the MIC [1] is reported as 1 µg/mL (≈ 1.74 µM) and the MIC [2] is reported as 1 µg/mL (≈ 1.74 µM).
